Some results are limits rather than exact numbers.

The target in one data set is Dipeptidyl peptidase 8 (Homo sapiens, UniProt Q6V1X1). The experiment in a line: Inhibition of human DPP8 after 15 mins by continuous fluorescent assay.
For the next data set, the target named is Dipeptidyl peptidase 9 (Homo sapiens, UniProt Q86TI2). The experiment in a line: Inhibition of human DPP9 after 15 mins by continuous fluorescent assay.
Data set [1] can be described thus: Oral bioavailability in rat at 2 mg/kg, po. In kind it is ADME, organism-based. Particulars: in vivo.
The next data set deals with Dipeptidyl peptidase 2 (Homo sapiens, UniProt Q9UHL4). Description: Inhibition of human recombinant QPP expressed in SF9 cells.
Data set [2] is described as follows: Plasma clearance in rat at 1 mg/kg, iv or 2 mg/kg, po. It is filed as ADME, organism-based.
In data set [3] the target is Voltage-gated inwardly rectifying potassium channel KCNH2 (Homo sapiens, UniProt Q12809). The experiment in a line: Inhibition of cardiac hERG. (In general: hERG is a cardiac potassium channel; its block is linked to QT prolongation.)
Sequence of Voltage-gated inwardly rectifying potassium channel KCNH2 (Q12809 whole entry): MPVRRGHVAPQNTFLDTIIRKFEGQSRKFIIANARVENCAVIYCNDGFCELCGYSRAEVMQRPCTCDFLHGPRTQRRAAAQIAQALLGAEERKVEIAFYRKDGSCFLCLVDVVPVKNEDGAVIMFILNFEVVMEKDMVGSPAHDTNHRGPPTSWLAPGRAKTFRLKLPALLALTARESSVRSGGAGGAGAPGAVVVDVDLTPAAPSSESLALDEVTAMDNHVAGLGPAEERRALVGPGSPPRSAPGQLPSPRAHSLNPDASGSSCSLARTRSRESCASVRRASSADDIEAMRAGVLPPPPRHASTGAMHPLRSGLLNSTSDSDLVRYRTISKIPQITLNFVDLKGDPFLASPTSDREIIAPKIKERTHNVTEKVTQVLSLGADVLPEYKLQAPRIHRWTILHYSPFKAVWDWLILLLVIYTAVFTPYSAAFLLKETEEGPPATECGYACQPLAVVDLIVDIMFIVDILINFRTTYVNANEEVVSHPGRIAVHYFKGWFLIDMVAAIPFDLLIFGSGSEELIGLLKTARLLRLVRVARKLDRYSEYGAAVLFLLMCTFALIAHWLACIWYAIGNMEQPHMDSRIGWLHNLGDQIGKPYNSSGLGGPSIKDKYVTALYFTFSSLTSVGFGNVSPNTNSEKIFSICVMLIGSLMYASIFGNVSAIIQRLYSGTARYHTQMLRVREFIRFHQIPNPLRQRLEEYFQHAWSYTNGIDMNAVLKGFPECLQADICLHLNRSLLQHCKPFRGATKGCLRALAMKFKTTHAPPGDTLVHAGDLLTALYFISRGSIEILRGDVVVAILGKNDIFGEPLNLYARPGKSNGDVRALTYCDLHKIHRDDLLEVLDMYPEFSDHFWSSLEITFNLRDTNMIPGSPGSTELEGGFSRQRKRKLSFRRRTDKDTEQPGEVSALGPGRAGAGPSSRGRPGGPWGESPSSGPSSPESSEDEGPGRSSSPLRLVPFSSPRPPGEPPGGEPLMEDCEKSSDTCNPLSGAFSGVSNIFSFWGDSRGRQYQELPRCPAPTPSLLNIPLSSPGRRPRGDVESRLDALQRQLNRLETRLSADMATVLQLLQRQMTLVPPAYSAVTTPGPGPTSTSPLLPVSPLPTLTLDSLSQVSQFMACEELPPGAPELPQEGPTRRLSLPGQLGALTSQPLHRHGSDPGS
Data set [4] in a line: Oral bioavailability in dog at 2 mg/kg, po. Particulars: in vivo. It is filed as ADME, organism-based, Canis lupus familiaris.
The species entered for another data set is Mus musculus. The experiment in a line: Reduction of blood glucose excursion in mouse by OGTT. In kind it is functional, organism-based.
Data set [5] in a line: Plasma clearance in dog at 1 mg/kg, iv or 2 mg/kg, po. In kind it is ADME, organism-based, Canis lupus familiaris.

Sequence of Dipeptidyl peptidase 9 (Q86TI2 whole entry): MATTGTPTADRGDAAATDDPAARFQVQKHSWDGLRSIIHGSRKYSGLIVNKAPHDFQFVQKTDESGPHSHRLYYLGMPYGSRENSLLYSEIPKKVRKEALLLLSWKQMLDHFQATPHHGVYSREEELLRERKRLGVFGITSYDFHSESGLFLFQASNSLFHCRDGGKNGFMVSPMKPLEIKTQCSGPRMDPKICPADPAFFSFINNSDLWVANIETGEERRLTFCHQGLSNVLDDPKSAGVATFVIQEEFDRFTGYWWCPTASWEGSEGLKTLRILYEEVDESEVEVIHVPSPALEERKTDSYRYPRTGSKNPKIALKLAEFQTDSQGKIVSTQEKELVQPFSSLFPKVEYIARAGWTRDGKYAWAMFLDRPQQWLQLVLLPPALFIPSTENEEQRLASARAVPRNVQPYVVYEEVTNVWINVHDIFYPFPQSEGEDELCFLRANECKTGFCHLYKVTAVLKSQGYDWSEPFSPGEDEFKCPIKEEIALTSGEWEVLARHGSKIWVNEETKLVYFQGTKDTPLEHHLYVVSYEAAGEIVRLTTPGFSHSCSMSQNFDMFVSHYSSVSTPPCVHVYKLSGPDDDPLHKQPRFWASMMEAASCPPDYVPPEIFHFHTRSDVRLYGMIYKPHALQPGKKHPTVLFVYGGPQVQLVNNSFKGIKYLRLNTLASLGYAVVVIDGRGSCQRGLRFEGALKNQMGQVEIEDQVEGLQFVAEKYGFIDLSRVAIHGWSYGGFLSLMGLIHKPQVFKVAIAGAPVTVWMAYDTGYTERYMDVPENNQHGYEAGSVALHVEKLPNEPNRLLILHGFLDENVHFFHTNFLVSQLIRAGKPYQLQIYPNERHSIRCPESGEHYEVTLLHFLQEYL
Sequence of Dipeptidyl peptidase 8 (Q6V1X1 whole entry): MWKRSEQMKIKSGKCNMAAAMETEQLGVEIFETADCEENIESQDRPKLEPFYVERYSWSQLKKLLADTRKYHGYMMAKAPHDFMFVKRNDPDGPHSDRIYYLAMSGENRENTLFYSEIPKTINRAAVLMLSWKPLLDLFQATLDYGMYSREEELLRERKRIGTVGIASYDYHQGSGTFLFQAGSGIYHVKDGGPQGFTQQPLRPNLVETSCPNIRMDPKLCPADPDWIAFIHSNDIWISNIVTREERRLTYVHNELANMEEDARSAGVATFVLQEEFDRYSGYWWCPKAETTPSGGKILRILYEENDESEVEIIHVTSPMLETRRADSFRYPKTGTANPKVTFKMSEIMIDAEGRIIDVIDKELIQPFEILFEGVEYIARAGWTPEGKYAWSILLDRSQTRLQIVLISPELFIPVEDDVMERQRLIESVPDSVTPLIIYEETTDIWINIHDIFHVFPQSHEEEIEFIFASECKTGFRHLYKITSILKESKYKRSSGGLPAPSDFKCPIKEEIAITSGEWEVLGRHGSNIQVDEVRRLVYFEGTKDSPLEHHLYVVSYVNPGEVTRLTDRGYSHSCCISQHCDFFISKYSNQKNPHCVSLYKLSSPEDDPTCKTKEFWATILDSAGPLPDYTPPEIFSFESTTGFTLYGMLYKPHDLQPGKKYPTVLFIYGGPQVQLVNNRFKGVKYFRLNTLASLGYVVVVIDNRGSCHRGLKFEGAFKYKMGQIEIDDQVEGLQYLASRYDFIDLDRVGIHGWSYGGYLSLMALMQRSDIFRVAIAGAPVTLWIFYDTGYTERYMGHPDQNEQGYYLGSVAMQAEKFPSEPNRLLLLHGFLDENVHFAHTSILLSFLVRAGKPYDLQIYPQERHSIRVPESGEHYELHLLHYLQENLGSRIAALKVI

`CN(C)C(=O)[C@@H](C1CCC(NS(=O)(=O)c2ccc(F)cc2F)CC1)[C@H](N)C(=O)N1CC[C@H](F)C1` (some centres undefined): the IC50 against Dipeptidyl peptidase 8 and against Dipeptidyl peptidase 9 was over 100 µM throughout.
`CN(C)C(=O)[C@@H](c1ccc(N(C)C(=O)c2ccc(F)cc2)cc1)[C@H](N)C(=O)N1CC[C@H](F)C1.O=C(O)C(F)(F)F`: in data set [1], the bioavailability (commonly the share of a dose that reaches the circulation, judged against a reference dose that is usually intravenous) was 6%. For the same molecule, the IC50 (in general, the concentration needed to halve the response being measured) is over 100 µM at Dipeptidyl peptidase 2, over 100 µM against Dipeptidyl peptidase 8, over 100 µM on Dipeptidyl peptidase 9 and over 90 µM in [3]. Moreover, the clearance in data set [2] stood at 73 mL/min/kg.
As to `CC(=O)N(C)C1CCC([C@H](C)[C@H](N)C(=O)N2CC[C@H](F)C2)CC1.Cl` (some centres undefined), the bioavailability in data set [4] turned out to be 83%; in data set [1] it was 56%. The Activity result in the data set filed under Mus musculus is “Dose-dependent effect”. In addition, the clearance in [5] was 4.4 mL/min/kg; in data set [2], 42 mL/min/kg. Besides, the IC50 at Dipeptidyl peptidase 9 was over 100 µM; in data set [3] it was over 90 µM.
On to `C[C@@H](C1CCC(N(C)C(=O)c2cccc(F)c2)CC1)[C@H](N)C(=O)N1CC[C@H](F)C1.Cl` (some centres undefined), for which the bioavailability in data set [1] was determined as 72%. In addition, the clearance in [2] came out at 40 mL/min/kg.
In turn, `CN(C)C(=O)[C@@H](C1CCC(N(C)C(=O)c2cccc(F)c2)CC1)[C@H](N)C(=O)N1CC[C@H](F)C1.Cl` (some centres undefined) showed a bioavailability in data set [1] of 25%. The IC50 against Dipeptidyl peptidase 8 is over 100 µM; against Dipeptidyl peptidase 9, over 100 µM; in [3], over 90 µM. The clearance in data set [2] is 27 mL/min/kg.
As to `CC(=O)N(C)c1ccc([C@H](C)[C@H](N)C(=O)N2CC[C@H](F)C2)cc1`, the half-inhibitory concentration (IC50) against Dipeptidyl peptidase 8 and against Dipeptidyl peptidase 9 was over 100 µM each time.
In the case of `CC(=O)N(C)c1ccc([C@H](C(=O)N(C)C)[C@H](N)C(=O)N2CC[C@H](F)C2)cc1`, the IC50 at Dipeptidyl peptidase 2, on Dipeptidyl peptidase 8 and against Dipeptidyl peptidase 9 was over 100 µM each time.
Consider `Cc1ccc(S(=O)(=O)N(C)c2ccc([C@H](C(=O)N(C)C)[C@H](N)C(=O)N3CC[C@H](F)C3)cc2)cc1`, for which the IC50 at Dipeptidyl peptidase 2, at Dipeptidyl peptidase 8 and on Dipeptidyl peptidase 9 was over 100 µM throughout.
With `CC(=O)N(C)C1CCC([C@H](C(=O)N(C)C)[C@H](N)C(=O)N2CC[C@H](F)C2)CC1.Cl` (some centres undefined), the bioavailability in [1] was 3%. In addition, the IC50 against Dipeptidyl peptidase 8 and against Dipeptidyl peptidase 9 was over 100 µM in each case. For the same molecule, the clearance in [2] came to 18 mL/min/kg.
For `C[C@@H](c1ccc(N(C)C(=O)c2ccc(F)cc2)cc1)[C@H](N)C(=O)N1CC[C@H](F)C1`, the IC50 against Dipeptidyl peptidase 8 and against Dipeptidyl peptidase 9 was over 100 µM throughout.
On to `CN(C)C(=O)[C@@H](C1CCC(NS(=O)(=O)c2ccc(OC(F)(F)F)cc2)CC1)[C@H](N)C(=O)N1CC[C@H](F)C1` (some centres undefined), for which the IC50 against Dipeptidyl peptidase 8 and against Dipeptidyl peptidase 9 was over 100 µM throughout.
On to `C[C@@H](C1CCC(N(C)C(=O)C2CC2)CC1)[C@H](N)C(=O)N1CC[C@H](F)C1.Cl` (some centres undefined), for which the bioavailability in data set [1] was 46%. The same molecule came in with a clearance in data set [2] of 49 mL/min/kg.
For `Cl.N[C@H](C(=O)N1CC[C@H](F)C1)C1CCC(NS(=O)(=O)c2ccc(F)cc2F)CC1` (some centres undefined), in data set [2], the clearance came out at 24 mL/min/kg.
For `Cc1ccc(C(=O)N(C)c2ccc([C@H](C(=O)N(C)C)[C@H](N)C(=O)N3CC[C@H](F)C3)cc2)cc1`, the IC50 at Dipeptidyl peptidase 2, at Dipeptidyl peptidase 8 and at Dipeptidyl peptidase 9 was over 100 µM in each case.
As for `CN(C)C(=O)[C@@H](c1ccc(NS(=O)(=O)c2ccccc2)cc1)[C@H](N)C(=O)N1CC[C@H](F)C1`, the IC50 on Dipeptidyl peptidase 8 and against Dipeptidyl peptidase 9 was over 100 µM each time.
As for `CC(=O)Nc1ccc([C@H](C)[C@H](N)C(=O)N2CC[C@H](F)C2)cc1`, the IC50 against Dipeptidyl peptidase 9 is over 100 µM.
For `CC(=O)Nc1ccc([C@H](C(=O)N(C)C)[C@H](N)C(=O)N2CC[C@H](F)C2)cc1`, the IC50 at Dipeptidyl peptidase 2 and at Dipeptidyl peptidase 9 was over 100 µM each time.

(Values after ChEMBL document CHEMBL1139199 (Bioorg Med Chem Lett, 2007).)
